The results in this text go back to patent publication US8420811B2, “Tetrahydroisoquinolines and intermediates therefor” (Bristol-Myers Squibb Company, priority 2008, dated 2013).

Holding throughout (type): physicochemical
A short description of series [1]: pH-Solubility profile (aqueous solubility). The conditions noted are these: for solubility: aqueous solution, aqueous buffer.
A further series in a line: pKa.
A short description of series [2]: Solubility profile (USP definition) in solvents.
Another series is described as follows: Distribution coefficient.
Another series is described as follows: Solution pH. The conditions noted are these: at about 1 μg/mL concentration in water.

Values after ≈ are worked out from the molar mass of the structure shown.

As for `CN1Cc2cc(-c3ccc(N)nn3)ccc2[C@H](c2ccc3ccccc3c2)C1` [Compound 2, (S)-6-(2-methyl-4-(naphthalen-2-yl)-1,2,3,4-tetrahydroisoquinolin-7-yl)pyridazin-3-amine], the solubility is 15600 µg/mL (≈ 42.6 mM) in series [1] (at pH 2.0); 1760 µg/mL (≈ 4.8 mM) in series [1] (at pH 4.4); not above 1 µg/mL in series [1] (at solution pH 6.5 and above).
As to `CN1Cc2cc(-c3ccc(N)nn3)ccc2[C@H](c2ccc3ccccc3c2)C1` [Form N-1, 6-[(4S)-1,2,3,4-tetrahydro-2-methyl-4-(2-naphthalenyl)-7-isoquinolinyl]-3-pyridazinamine], the values for the pKa in the series “pKa” (first of two printed pKa values) and in the series “pKa” (second of two printed pKa values) were 4.9 and 7.8, respectively. For the same compound, the “Solubility profile (USP definition)” value in series [2] (N,N-dimethylacetamide) was “soluble: N,N-dimethylacetamide, dimethylsulfoxide”; in series [2] (PEG 400), “sparingly soluble: PEG 400”; in series [2] (acetone), “slightly soluble: isopropanol, acetone, ethanol, methanol”; in series [2] (acetonitrile), “very slightly soluble: acetonitrile, ethyl acetate, n-butanol”; in series [2] (dichloromethane), “slightly soluble: isopropanol, acetone, ethanol, methanol”; in series [2] (dimethylsulfoxide) it was “soluble: N,N-dimethylacetamide, dimethylsulfoxide”. Further, the “Solubility profile (USP definition)” value in series [2] (ethanol) is “slightly soluble: isopropanol, acetone, ethanol, methanol”; in series [2] (ethyl acetate) it was “very slightly soluble: acetonitrile, ethyl acetate, n-butanol”; in series [2] (isopropanol), “slightly soluble: isopropanol, acetone, ethanol, methanol”; in series [2] (methanol), “slightly soluble: isopropanol, acetone, ethanol, methanol”; in series [2] (n-butanol) it was “very slightly soluble: acetonitrile, ethyl acetate, n-butanol”; in series [2] (n-heptane), “practically insoluble: n-heptane”. Further, the “Solubility profile (USP definition)” value is recorded as “slightly soluble: isopropanol, acetone, ethanol, methanol” in series [2] (propylene glycol) and “freely soluble: tetrahydrofuran” in series [2] (tetrahydrofuran). Further, the “aqueous solubility (in words)” value in series [1] (general statement, no pH given) is recorded as “high aqueous solubility”. Also, the “Distribution coefficient Log Do/b” value was found to be 3.10 in the series “Distribution coefficient” (at pH 6.5) and 3.82 in “Distribution coefficient” (at pH 7.4). Also, the “Solution pH” value in “Solution pH” is ~7.0 at about 1 μg/mL concentration in water.

As usually defined, the solubility is how much of the substance goes into solution per volume. A lower solubility goes with a poorly soluble substance. The pKa is the pH at which an ionisable group is half protonated.
